Columns and labels:
JHH-7 cells (GPC3-high) = test: On-cell binding by flow cytometry; conditions: 24 h at 4 °C
Description: Briefly, cells were seeded at 50,000 cells/well in V-bottom 96-well plates and treated with antibody for 24 hours at 4° C. to prevent internalization. […] Following incubation and washing, fluorescence was detected by flow cytometry on a BD LSRFortessa™ Cell Analyzer (BD Biosciences, Franklin Lake, NJ) with 1,000 minimum events collected per well. AF647/APC-A GeoMean (fluorescence signal geometric mean, proportional to anti-Human AF647 binding) in live cell population was plotted against antibody concentration using GraphPad Prism Version 9 (GraphPad Software, San Diego, CA). The Bmax, Curve Hill Slope (h) and Kd values were derived from the “Specific binding with Hill slope” nonlinear regression curve fit in GraphPad Prism Version 9.
The on-cell binding capabilities of light chain (LC)-modified M3-H18L6 antibody constructs were assessed on JHH-7 (hepatocellular carcinoma; GPC3-high) and JHH-5 (hepatocellular carcinoma; GPC3-mid) by flow cytometry as described below. […] The assay was carried out as described in Example 13.
Briefly, plasma stress was carried out by incubating M3-H18L6 LC-modified antibodies in mouse plasma (BioIVT, Westbury, NY; Cat. No. MSE00PL38NC-0103070) for 14 days in a 37° C./5% CO2 incubator. […] Following incubation and washing, fluorescence was detected by flow cytometry on a BD LSRFortessa™ Cell Analyzer (BD Biosciences, Franklin Lake, NJ) with 1,000 minimum events collected per well. AF647/APC-A GeoMean (fluorescence signal geometric mean, proportional to anti-Human AF647 binding) in live cell population was plotted against antibody concentration using GraphPad Prism Version 9 (GraphPad Software, San Diego, CA). […] Following incubation, cells were dissociated, washed, and surface AF488 fluorescence was quenched using an anti-AF488 antibody (Life Technologies, Carlsbad, CA; Cat. No. A-11094) at 100 nM for 30 minutes at 4° C. Quenched AF488 fluorescence (internalized fluorescence) was detected by flow cytometry on a BD LSRFortessa™ Cell Analyzer (BD Biosciences, Franklin Lake, NJ) with 1,000 minimum events collected per well.

HepG2 cells (GPC3-high) = test: On-cell binding by flow cytometry; conditions: 24 h at 4 °C
Description: Briefly, cells were seeded at 50,000 cells/well in V-bottom 96-well plates and treated with antibody for 24 hours at 4° C. to prevent internalization. […] Following incubation and washing, fluorescence was detected by flow cytometry on a BD LSRFortessa™ Cell Analyzer (BD Biosciences, Franklin Lake, NJ) with 1,000 minimum events collected per well.

[1] = test system: Hep G2 cells (high GPC3-expressing); test: Internalization by flow cytometry (quenched AF488); format: cell-based; conditions: antibody 10 nM
Description: (§1) Cells were seeded at 50,000 cells/well in 48-well plates and incubated overnight under standard culturing conditions (37° C./5% CO2) in Gibco™ Dulbecco's Modified Eagle Media (DMEM) (Thermo Fisher Scientific, Waltham, MA; Cat. No. 11995040) with 10% Fetal Bovine Serum (FBS) (Thermo Fisher Scientific, Waltham, MA; Cat. No. 12483020) for Hep G2 cells, and Gibco™ William's E Medium, GlutaMAX™ Supplement (Thermo Fisher Scientific, Waltham, MA; Cat. No. 32551020) with 10% FBS (Thermo Fisher Scientific, Waltham, MA; Cat. No. 12483020) for JHH-7 cells. Coupled antibodies were added to cells the following day at 10 nM or at 100 nM and incubated under standard culturing conditions for 5-24 hours to allow for internalization. Following incubation, cells were dissociated, washed, and surface AF488 fluorescence was quenched using an anti-AF488 antibody (Life Technologies, Carlsbad, CA; Cat. No. A-11094) at 100 nM for 30 minutes at 4° C. Quenched AF488 fluorescence (internalized fluorescence) was detected by flow cytometry on a BD LSRFortessa™ Cell Analyzer (BD Biosciences, Franklin Lake, NJ) with 1,000 minimum events collected per well.

[2] = test system: JHH-7 cells (high GPC3-expressing); test: Internalization by flow cytometry (quenched AF488); format: cell-based; conditions: antibody 10 nM
Description: as §1
as §1, with “CO2)” for “CO2) in Gibco™ Dulbecco's Modified Eagle Media (DMEM) (Thermo Fisher Scientific, Waltham, MA; Cat. No. 11995040) with 10% Fetal Bovine Serum (FBS) (Thermo Fisher Scientific, Waltham, MA; Cat. No. 12483020) for Hep G2 cells, and”, “12483020).” for “12483020) for JHH-7 cells.”, “5” for “10 nM or at 100”, “24” for “5-24”, “well. […]” for “well.”

Substance: palivizumab [v22277 (palivizumab)]
- Kd (JHH-7 cells (GPC3-high)): > 60 nM
- Kd (HepG2 cells (GPC3-high)): > 60 nM
- Internalized fluorescence, fold increase over palivizumab, Hep G2, 5 hours ([1]; 5 hours): 1.0 fold
- Internalized fluorescence, fold increase over palivizumab, Hep G2, 24 hours ([1]; 24 hours): 1.0 fold
- Internalized fluorescence, fold increase over palivizumab, JHH-7, 5 hours ([2]; 5 hours): 1.0 fold
- Internalized fluorescence, fold increase over palivizumab, JHH-7, 24 hours ([2]; 24 hours): 1.0 fold
